Results on 2 molecules are retold here after US11744830B2, “Ameliorative agent for cytokine release syndrome and so on” (TORII PHARMACEUTICAL CO., LTD., priority 2018, dated 2023).

SMILES strings stand for the structures. Where a name gives a salt, the structure may show the parent alone.

In experiment [1] the test system is IFN-γ production in CD4^+ T cell-depleted PBMCs. Description: T-cell stimulation bead- and LPS stimulation-induced CRS toxicity evaluation system in CD4^+ T cell-depleted PBMCs: IFN-γ. As to conditions: Homo sapiens, 72 h, CD3/CD28 + LPS, 3 days. In kind it is cell-based. The procedure: Cryopreserved human PBMCs were quickly thawed in a 37° C. thermostat and added to a tube containing medium. After centrifugation (at room temperature at 300 g for 10 minutes) to remove the supernatant, the cells were suspended again in the medium (10 mL), followed by counting the number of viable cells. The remainder of the cell suspension was centrifuged (at room temperature at 300 g for 10 minutes) to remove the supernatant, followed by addition of MACS Buffer in a volume of 80 μL and Human CD4 MicroBeads in a volume of 20 μL per 1×10^7 cells to suspend the cells. After being allowed to stand on ice for 15 minutes, the cell suspension was diluted with MACS Buffer (2 mL) and centrifuged (at room temperature at 300 g for 10 minutes) to remove the supernatant. MACS Buffer (500 μL) was added to the tube, and the cells were suspended and then applied to a separatory column to separate CD4^− cells (a pass-through fraction of CD4^+ cells). The CD4^− cell fraction was diluted to 15 mL with the medium and then centrifuged (at room temperature at 300 g for 10 minutes) to remove the supernatant, and the cells were then suspended again in the medium (1 mL), followed by counting the number of viable cells. […]
(§1) The collected culture supernatants were quantified for IFN-γ and IL-6 using Human IFN-γ DuoSet ELISA and Human IL-6 DuoSet ELISA.

In experiment [2] the test system is TNF-α production from CD8^+ T cells. Nature of the experiment: T-cell stimulation bead-induced TNF-α production in CD8^+ T cells. In kind it is cell-based, human. As to conditions: CD3/CD28 stimulation, 3 days. The procedure: (§2) Cryopreserved PBMCs were quickly thawed in a 37° C. thermostat and added to a tube containing medium. After centrifugation (at room temperature at 300 g for 10 minutes) to remove the supernatant, the cells were suspended in the medium, a portion of which was then mixed with a trypan blue solution to count the number of viable cells. The cell suspension was centrifuged (at room temperature at 300 g for 10 minutes) to remove the supernatant, followed by addition of MACS Buffer in a volume of 80 μL per 1×10^7 cells to suspend the cells, to which Human CD8 MicroBeads (20 μL) were further added. After being allowed to stand on ice for 15 minutes, the cell suspension was diluted with MACS Buffer (2 mL) and centrifuged (at room temperature at 300 g for 10 minutes) to remove the supernatant.
MACS Buffer (500 μL) was added to the tube, and the cells were suspended and then applied to a separatory column to separate CD8^+ cells. The CD8^+ cell fraction was diluted to 15 mL with the medium and then centrifuged (at room temperature at 300 g for 10 minutes). The supernatant was removed and the cells were suspended in the medium (1 mL), followed by counting the number of viable cells. The cell suspension adjusted with the medium to 1×10^6 cells/mL was seeded in a 96-well plate in a volume of 100 μL/well (1×10^5 cells/well) and allowed to stand in a CO2 incubator for 1 to 2 hours.
The culture supernatants collected in 1.2.1 were quantified for TNF-α using Human TNF-α DuoSet ELISA.

The subject of experiment [3] is TNF-α production from CD14^+ cells. Nature of the experiment: LPS stimulation-induced TNF-α production in CD14^+ cells. Format: cell-based, human. As to conditions: for IC50: LPS 3 ng/mL, 3 days. The procedure:
as §2, with “suspended again” for “suspended”, “followed by counting” for “a portion of which was then mixed with a trypan blue solution to count”, “Buffer” for “Buffer in a volume of 80 μL per 1×10^7 cells”, “CD14” for “CD8”, “MicroBeads” for “MicroBeads (20 μL)”, “Buffer” for “Buffer (2 mL)”
MACS Buffer was added to the tube, and the cells were suspended and then applied to a separatory column to separate CD14^+ cells. The CD14^+ cell fraction was diluted with the medium and then centrifuged (at room temperature at 300 g for 10 minutes). The supernatant was removed and the cells were suspended in the medium (1 mL), followed by counting the number of viable cells. The cell suspension was adjusted with the medium to 2.4×10^5 or 3×10^5 cells/mL and seeded in a 96-well plate (2.4×10^4 cells/well), which was then allowed to stand in a CO2 incubator for 1 to 2 hours.
(§3) The culture supernatants collected in 1.2.2 were quantified for TNF-α using Human TNF-α DuoSet ELISA.

Experiment [4] has as its system TNF-α production in PBMCs. Description: LPS stimulation-induced TNF-α production in PBMCs. In kind it is cell-based. The note with it: Homo sapiens, PBMC. The procedure:
Cryopreserved PBMCs were quickly thawed in a 37° C. thermostat and added to a tube containing medium. After centrifugation (at room temperature at 300 g for 10 minutes) to remove the supernatant, the cells were suspended again in the medium (10 mL), followed by counting the number of viable cells. After centrifugation (at room temperature at 300 g for 10 minutes) to remove the supernatant, the medium was added to suspend the cells at 1×10^6 cells/mL. This cell suspension was seeded in a 96-well plate in a volume of 100 μL/well (1×10^5 cells/well). […] The cells were cultured in a CO2 incubator for 3 days to collect the culture supernatants.
as §3

A further experiment has as its system IL-8 production. Description: CRS toxicity evaluation system using CAR-T cells: IL-8. As to conditions: for IC50: Homo sapiens, Monocyte, CAR-T cells, target cells and monocytes, 72 hours. Format: cell-based, human. The procedure: (§4) The supernatants were collected at 72 hours after the initiation of culture, and various cytokines in each supernatant were measured by FACS multiplex assay.

Another experiment has as its system IL-6 production. Description: CRS toxicity evaluation system using CAR-T cells: IL-6. Format: cell-based, human. As to conditions: for IC50: Homo sapiens, Monocyte, CAR-T cells, target cells and monocytes, 72 hours. The procedure: as §4
Experiment [5] has as its system IFN-γ production from PBMCs. Nature of the experiment: T-cell stimulation bead- and LPS stimulation-induced CRS toxicity evaluation system in PBMCs: IFN-γ. Format: cell-based, human. The note with it: for IC50: Homo sapiens, PBMC, 72 h, PBMCs, CD3/CD28 + LPS, 3 days. The procedure: Cryopreserved PBMCs were quickly thawed in a 37° C. thermostat and added to a tube containing medium. After centrifugation (at room temperature at 300 g for 10 minutes) to remove the supernatant, the cells were suspended again in the medium (10 mL), followed by counting the number of viable cells. After centrifugation (at room temperature at 300 g for 10 minutes) to remove the supernatant, the medium was added to suspend the cells at 1×10^6 cells/mL. This cell suspension was seeded in a 96-well plate in a volume of 100 μl/well (1×10^5 cells/well) and allowed to stand in a CO2 incubator for 1 to 2 hours.
The cells were cultured in a CO2 incubator for 3 days to collect the culture supernatants.
as §1

The mark [6] stands for this setting: CRS toxicity evaluation system using CAR-T cells.

Turning to `CCOC(=O)[C@H](Cc1ccccc1)NC(=O)c1cc(Cl)c(OCCN2CCN(C)CC2)c(Cl)c1O` [JTE-607, (−)-ethyl N-{3,5-dichloro-2-hydroxy-4-[2-(4-methylpiperazin-1-yl)ethoxy]benzoyl}-L-phenylalaninate dihydrochloride], the concentration for half-maximal inhibition (IC50) (as a rule, the concentration at which inhibition is half-maximal) in experiment [1] is 80.9 nM; in experiment [2] (dihydrochloride) it was 231 nM; in experiment [2] (Homo sapiens, T-cell, 72 h) it was 231 nM; in experiment [3] (Homo sapiens, 72 h), over 300 nM; in experiment [4], 30.7 nM; in the experiment on IL-8 production it was 154 nM. Further, the IC50 in the experiment with IL-6 production stood at 188 nM; in experiment [5], 50.1 nM. For the same molecule, the “suppressive effect on TNF-α production” value in experiment [3] (LPS) was “suppressive effect in a manner dependent on its concentration added”.
As to `C[C@]12C=CC(=O)C=C1CC[C@@H]1[C@@H]2[C@@H](O)C[C@@]2(C)[C@H]1CC[C@]2(O)C(=O)CO` [PSL, Prednisolone], the concentration for half-maximal inhibition (IC50) in experiment [1] was found to be 42 nM; in experiment [2] it was 35 nM; in experiment [2] (Homo sapiens, T-cell, 72 h) it was 34.8 nM; in experiment [3] (Homo sapiens, 72 h), 41.7 nM; in experiment [3], 42 nM; in experiment [4], 73 nM. For the same molecule, the half-inhibitory concentration (IC50) with IL-8 production was over 100000 nM; in the experiment with IL-6 production, over 10000 nM; in experiment [5], 53 nM. Also, the “suppressive effect on IL-8 production” value in the experiment on IL-8 production (setting [6]) is reported as “no suppressive effect”. In addition, the “suppressive effect on IL-6 production” value in the experiment on IL-6 production (setting [6]) is “no suppressive effect”. For the same molecule, the “suppression of IFN-γ production versus IL-6 production” value in experiment [5] (PBMCs co-stimulated with T-cell stimulation beads and LPS) is “more strongly suppressed IFN-γ production than IL-6 production”.
